Measured values from patent US10947566B1, “Hydrogen peroxide production method, system, and apparatus” (SOLUGEN, INC., priority 2015, dated 2021).

Test system: NQO1
Test: NQO1/NADH/NAC cell-free reaction in 96-well plate: oxygen consumption rate (Seahorse XF Analyzer) and hydrogen peroxide produced (absorption at 240 nm)
Type: biochemical
Description: Referring now to FIG. 1C-1D, data graphs are provided illustrating the results of one sample experiment for hydrogen peroxide produced using the one or more embodiments of the present disclosure described herein. In particular, FIG. 1C illustrates the generation of superoxide radicals by using the Oxygen Consumption Rate (OCR) with respect to time as a proxy for one experiment. Here, the experiment comprised using a Seahorse Bioscience XF Analyzer® instrument to measure the OCR with respect to time. In addition, a 96-well plate was used wherein each well was filled with 140 microliters of 100 units of NQO1, NADH, 4 micromolar NAC (β-Lacaphone), 50 millimolar Tris-HCl at pH 7 wherein the solutions were kept at atmospheric temperature. […] Further, at the conclusion of this 7-hour period, approximately […] hydrogen peroxide was produced and measured. […] Specifically, referring to FIG. 1D, the hydrogen peroxide concentration was measured using a spectrophotometric absorption of 240 nm corresponding to hydrogen peroxide.

With `CC1(C)CCC2=C(O1)c1ccccc1C(=O)C2=O` [β-lapachone] the “resulting hydrogen peroxide concentration” value (7-hour run cycle, spectrophotometric absorption 240 nm) was over 30%, the “Oxygen Consumption Rate (OCR) with respect to time, proxy for generation of superoxide radicals” value (100 units NQO1, NADH, 4 micromolar NAC, 50 millimolar Tris-HCl pH 7, atmospheric temperature, 7-hour period, measured every 2 minutes, versus DMSO vehicle control wells) was “dramatically increased and sustained OCR” and the “hydrogen peroxide produced and measured” value (at conclusion of 7-hour period, 100 units NQO1, NADH, 4 micromolar NAC, 50 millimolar Tris-HCl pH 7, spectrophotometric absorption 240 nm) was “approximately 12 molar”.
